# Measurements as given in patent publication US20260297060A1, “COMPOUNDS FOR THE DEGRADATION OF MUTANT BRAF” (C4 THERAPEUTICS, INC., priority 2023, published 2026).
# Read-outs that look alike come from different tables or passages of the source.
# How the values were obtained:
# A375-NRAS^Q61K cells = assay: CTGlo Cell Viability Assay, A375-NRAS^Q61K (A375.11) cells, 96 hours; format: cell-based, human; details: A375.11 (A375-NRAS^Q61K) cells; for Emax / CTGlo A375.11 96 hours Emax: lowest % viability achieved
# In short: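 A375 cells carrying BRAF V600E and NRAS Q61K were seeded at 250 cells/well with a 10-point half-log dose series (max 10 μM final). After 96 h at 37 °C, viability was read as ATP luminescence (CellTiter-Glo), background-subtracted and normalized to DMSO (100%). GI50 from 4-parameter fit; Emax is the lowest % viability.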
# BRAF V600E = molecular target: T1, BRAF V600E (Homo sapiens, UniProt P15056+Q96SW2, V600E); assay: BRAF V600E HiBiT Degradation Assay; format: cell-based; details: A375.10 cells, BRAF V600E
# T1 construct: knock-in of the HiBiT tag to the endogenous BRAF V600E locus; host or cells: A375.10 (A375 clonal line, CRISPR HiBiT knock-in at the endogenous BRAF V600E locus)
# In short: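 Endogenous HiBiT knock-in on BRAF V600E in A375 cells (clone A375.10); 11-point half-log series, top 10 μM, 2, 6 or 24 h at 37° C. Lytic HiBiT luminescence, background-subtracted, normalized to DMSO; 4-parameter fit gives DC50, Emax (residual protein) and IP (inflection point).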
# [1] = 2 hours, inflection point, read-out: HiBiT-Degradation A375.10 BRAF 2 hours IP
# [2] = 2 hours, read-out: HiBiT-Degradation A375.10 BRAF 2 hours DC50
# [3] = 2 hours, residual protein remaining, read-out: HiBiT-Degradation A375.10 BRAF 2 hours Emax
# [4] = HiBiT, 24 hours, read-out: HiBiT-Degradation A375.10 BRAF 24 hours DC50
# [5] = HiBiT, 24 hours, read-out: HiBiT-Degradation A375.10 BRAF 24 hours Emax
# [6] = HiBiT, 24 hours, read-out: HiBiT-Degradation A375.10 BRAF 24 hours IP
# [7] = 2 hours, residual protein remaining
# [8] = 6 hours, inflection point, read-out: HiBiT-Degradation A375.10 BRAF 6 hours IP
# [9] = 6 hours, read-out: HiBiT-Degradation A375.10 BRAF 6 hours DC50
# [10] = 6 hours, residual protein remaining
# T1 sequence (P15056 whole entry V600E): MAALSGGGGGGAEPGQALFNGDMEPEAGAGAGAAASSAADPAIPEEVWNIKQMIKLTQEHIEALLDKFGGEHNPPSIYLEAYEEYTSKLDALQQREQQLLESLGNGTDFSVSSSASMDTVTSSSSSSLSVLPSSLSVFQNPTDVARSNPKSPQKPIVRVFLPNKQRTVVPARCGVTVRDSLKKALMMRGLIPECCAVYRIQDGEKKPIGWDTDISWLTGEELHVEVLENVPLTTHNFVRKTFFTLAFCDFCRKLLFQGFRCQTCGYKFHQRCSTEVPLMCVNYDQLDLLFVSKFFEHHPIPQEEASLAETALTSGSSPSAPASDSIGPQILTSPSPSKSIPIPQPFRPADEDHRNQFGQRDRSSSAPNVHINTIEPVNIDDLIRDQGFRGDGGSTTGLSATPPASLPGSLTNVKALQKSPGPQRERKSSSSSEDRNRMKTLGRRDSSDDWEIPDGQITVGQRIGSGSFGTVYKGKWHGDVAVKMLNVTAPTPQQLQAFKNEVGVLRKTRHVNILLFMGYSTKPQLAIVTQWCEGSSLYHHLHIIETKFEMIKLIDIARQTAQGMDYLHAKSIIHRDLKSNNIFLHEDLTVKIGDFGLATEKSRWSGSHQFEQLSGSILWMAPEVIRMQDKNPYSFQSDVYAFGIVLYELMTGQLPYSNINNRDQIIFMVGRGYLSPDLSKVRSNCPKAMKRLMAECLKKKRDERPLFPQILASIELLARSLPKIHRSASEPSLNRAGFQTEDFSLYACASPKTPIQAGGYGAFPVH
# T1 sequence (Q96SW2 whole entry): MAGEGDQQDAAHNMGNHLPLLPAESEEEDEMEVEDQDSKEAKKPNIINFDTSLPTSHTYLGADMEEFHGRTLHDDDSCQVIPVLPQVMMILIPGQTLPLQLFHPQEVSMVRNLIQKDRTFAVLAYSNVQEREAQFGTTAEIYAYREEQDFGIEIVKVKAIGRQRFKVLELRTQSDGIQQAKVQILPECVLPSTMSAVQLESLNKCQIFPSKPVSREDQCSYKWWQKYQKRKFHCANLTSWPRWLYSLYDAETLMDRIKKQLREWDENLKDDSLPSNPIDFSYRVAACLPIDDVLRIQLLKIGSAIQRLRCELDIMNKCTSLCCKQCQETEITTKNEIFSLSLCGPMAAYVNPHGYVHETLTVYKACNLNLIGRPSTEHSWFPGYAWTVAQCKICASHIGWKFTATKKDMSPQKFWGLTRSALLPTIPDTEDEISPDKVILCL
# T1 sequence (Q16531 whole entry partner): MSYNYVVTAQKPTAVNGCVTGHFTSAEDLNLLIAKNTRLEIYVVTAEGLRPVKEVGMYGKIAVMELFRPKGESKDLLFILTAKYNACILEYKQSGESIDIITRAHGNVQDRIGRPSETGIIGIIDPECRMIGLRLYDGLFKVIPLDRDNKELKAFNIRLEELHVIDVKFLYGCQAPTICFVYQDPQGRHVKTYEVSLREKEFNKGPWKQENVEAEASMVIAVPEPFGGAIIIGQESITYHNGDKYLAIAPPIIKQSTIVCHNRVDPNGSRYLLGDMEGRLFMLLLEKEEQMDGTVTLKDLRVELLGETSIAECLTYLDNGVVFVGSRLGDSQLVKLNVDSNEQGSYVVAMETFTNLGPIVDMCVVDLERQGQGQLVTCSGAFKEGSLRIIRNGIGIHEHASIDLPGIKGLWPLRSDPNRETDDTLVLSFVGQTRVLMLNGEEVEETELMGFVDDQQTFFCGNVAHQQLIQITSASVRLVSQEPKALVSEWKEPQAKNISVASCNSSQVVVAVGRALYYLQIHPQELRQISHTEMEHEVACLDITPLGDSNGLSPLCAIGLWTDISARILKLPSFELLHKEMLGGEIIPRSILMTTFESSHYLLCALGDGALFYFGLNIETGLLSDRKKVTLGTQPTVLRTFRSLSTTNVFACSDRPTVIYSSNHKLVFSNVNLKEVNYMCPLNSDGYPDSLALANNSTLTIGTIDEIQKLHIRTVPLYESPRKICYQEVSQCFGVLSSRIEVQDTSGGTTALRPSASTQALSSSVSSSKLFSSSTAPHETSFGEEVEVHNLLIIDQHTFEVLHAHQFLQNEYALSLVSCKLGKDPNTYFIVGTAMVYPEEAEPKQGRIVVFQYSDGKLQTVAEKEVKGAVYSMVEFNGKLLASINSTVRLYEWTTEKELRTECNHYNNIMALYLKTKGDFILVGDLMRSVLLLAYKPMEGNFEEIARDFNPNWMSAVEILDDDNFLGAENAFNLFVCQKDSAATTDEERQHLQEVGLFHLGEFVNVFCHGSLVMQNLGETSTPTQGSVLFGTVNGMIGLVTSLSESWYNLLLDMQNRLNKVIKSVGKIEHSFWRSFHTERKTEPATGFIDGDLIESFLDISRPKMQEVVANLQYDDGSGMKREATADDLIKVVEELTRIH
Compound,"GI50 (A375-NRAS^Q61K cells; Homo sapiens, 96 h) [µM]","Emax (A375-NRAS^Q61K cells; Homo sapiens, 96 h) [%]",DC50 (BRAF V600E; [1]) [µM],DC50 (BRAF V600E; [2]) [µM],Emax (BRAF V600E; [3]) [%],DC50 (BRAF V600E; [4]) [µM],Emax (BRAF V600E; [5]) [%],DC50 (BRAF V600E; [6]) [µM],GI50 (A375-NRAS^Q61K cells) [µM],CTGlo A375.11 96 hours Emax (A375-NRAS^Q61K cells),HiBiT-Degradation A375.10 BRAF 2 hours Emax (BRAF V600E; [7]),"HiBiT-Degradation A375.10 BRAF 24 hours Emax (BRAF V600E; HiBiT, 24 hours)",DC50 (BRAF V600E; [8]) [µM],DC50 (BRAF V600E; [9]) [µM],HiBiT-Degradation A375.10 BRAF 6 hours Emax (BRAF V600E; [10])
"CCN(C)S(=O)(=O)Nc1ccc(F)c(Oc2ccc3ncn([C@H]4COC5(C4)CN(C4CCN(c6cc7c(cc6F)c(N6CCC(=O)NC6=O)nn7C)CC4)C5)c(=O)c3c2)c1C#N [Compound 309, (7R)-7-[6-[2-cyano-3-[[ethyl(methyl)sulfamoyl]amino]-6-fluoro-phenoxy]-4-oxo-quinazolin-3-yl]-2-[1-[3-(2,4-dioxohexahydropyrimidin-1-yl)-5-fluoro-1-methyl-indazol-6-yl]-4-piperidyl]-5-oxa-2-azaspiro[3.4]octane]",> 10,50 to 90,< 1,> 10,50 to 90,< 1,< 50,< 1,–,–,–,–,–,–,–
"CCN(C)S(=O)(=O)Nc1ccc(F)c(Oc2ccc3ncc(C4CC5(C4)CN(C4CCC(c6cc7c(cc6F)c(N6CCC(=O)NC6=O)nn7C)CC4)C5)nc3c2)c1C#N (single isomer, unassigned) [Compound 298, 7-[2-cyano-3-[[ethyl(methyl)sulfamoyl]amino]-6-fluoro-phenoxy]-2-[2-[4-[3-(2,4-dioxohexahydropyrimidin-1-yl)-5-fluoro-1-methyl-indazol-6-yl]cyclohexyl]-2-azaspiro[3.3]heptan-6-yl]quinoxaline]",–,–,< 1,< 1,–,< 1,–,< 1,< 1,*** (<=50%),*** (<=50%),*** (<=50%),–,–,–
"CCN(C)S(=O)(=O)Nc1ccc(F)c(Oc2ccc3ncn([C@@H]4COC5(C4)CN(C4CCC(c6cc7c(cc6F)c(N6CCC(=O)NC6=O)nn7C)CC4)C5)c(=O)c3c2)c1C#N (single isomer, unassigned) [Compound 238]",–,–,< 1,< 1,–,< 1,< 50,< 1,< 1,** (<90% and >50%),*** (<=50%),–,–,–,–
"CO[C@@H]1CCN(S(=O)(=O)Nc2ccc(F)c(Oc3ccc4ncn(C5CC6(CCN(C7CCC(c8cc9c(cc8F)c(N8CCC(=O)NC8=O)nn9C)CC7)CC6)C5)c(=O)c4c3)c2C#N)C1 (single isomer, unassigned) [Compound 102]",–,–,< 1,< 1,–,< 1,–,< 1,< 1,*** (<=50%),*** (<=50%),*** (<=50%),< 1,< 1,*** (<=50%)
"Cn1nc(N2CCC(=O)NC2=O)c2cc(F)c(N3CC4(CC(N5CCC6(CC5)C[C@@H](n5cnc7ccc(Oc8c(F)ccc(NS(=O)(=O)C9CCOCC9)c8C#N)cc7c5=O)CO6)C4)C3)cc21 [Compound 252, N-[2-cyano-3-[3-[(3R)-8-[2-[3-(2,4-dioxohexahydropyrimidin-1-yl)-5-fluoro-1-methyl-indazol-6-yl]-2-azaspiro[3.3]heptan-6-yl]-1-oxa-8-azaspiro[4.5]decan-3-yl]-4-oxo-quinazolin-6-yl]oxy-4-fluoro-phenyl]tetrahydropyran-4-sulfonamide]",> 10,50 to 90,< 1,> 10,50 to 90,–,–,–,–,–,–,–,–,–,–
"CCN(C)S(=O)(=O)Nc1ccc(F)c(Oc2ccc3ncn([C@H]4COC5(CCN(C6CCC(c7cc8c(cc7F)c(N7CCC(=O)NC7=O)nn8C)CC6O)CC5)C4)c(=O)c3c2)c1C#N (single isomer, unassigned) [Compound 45]",–,–,< 1,< 1,–,< 1,–,< 1,< 1,*** (<=50%),*** (<=50%),*** (<=50%),< 1,< 1,*** (<=50%)
"CCN(C)S(=O)(=O)Nc1ccc(F)c(Oc2ccc3ncn(C4CCC(N5CC6(CCN(c7cc8c(cc7F)c(N7CCC(=O)NC7=O)nn8C)CC6)C5)CC4)c(=O)c3c2)c1C#N (single isomer, unassigned) [Compound 222, 6-[2-cyano-3-[[ethyl(methyl)sulfamoyl]amino]-6-fluoro-phenoxy]-3-[4-[7-[3-(2,4-dioxohexahydropyrimidin-1-yl)-5-fluoro-1-methyl-indazol-6-yl]-2,7-diazaspiro[3.5]nonan-2-yl]cyclohexyl]-4-oxo-quinazoline]",–,–,< 1,< 1,–,–,–,–,< 1,** (<90% and >50%),*** (<=50%),–,–,–,–
"CCN(C)S(=O)(=O)Nc1ccc(F)c(Oc2ccc3ncn([C@H]4COC5(CCC(N6CCC(c7ccc(NC8CCC(=O)NC8=O)cc7F)C(F)(F)C6)CC5)C4)c(=O)c3c2)c1C#N (single isomer, unassigned) [Compound 190]",1 to 10,< 50,< 1,< 1,< 50,–,–,–,–,–,–,–,–,–,–
"CO[C@H]1CCN(S(=O)(=O)Nc2ccc(F)c(Oc3ccc4ncn([C@H]5COC6(CCN(C7CCC(c8ccc(NC9CCC(=O)NC9=O)cc8F)CC7)CC6)C5)c(=O)c4c3)c2C#N)C1 (single isomer, unassigned) [Compound 140]",< 1,< 50,< 1,< 1,< 50,–,–,–,–,–,–,–,–,–,–
"CN(CCO)S(=O)(=O)Nc1ccc(F)c(Oc2ccc3ncc(C4CC5(C4)CN(C4CCC(c6cc7c(cc6F)c(N6CCC(=O)NC6=O)nn7C)CC4)C5)nc3c2)c1C#N (single isomer, unassigned) [Compound 321, 7-[2-cyano-6-fluoro-3-[[2-hydroxyethyl(methyl)sulfamoyl]amino]phenoxy]-2-[2-[4-[3-(2,4-dioxohexahydropyrimidin-1-yl)-5-fluoro-1-methyl-indazol-6-yl]cyclohexyl]-2-azaspiro[3.3]heptan-6-yl]quinoxaline]",> 10,50 to 90,< 1,1 to 10,–,–,–,–,–,–,* (>=90%),–,–,–,–
"CCN(C)S(=O)(=O)Nc1ccc(F)c(Oc2ccc3ncn(C4CC5(CCN(C6CCC(c7ccc(NC8CCC(=O)NC8=O)cc7F)CC6)CC5)C4)c(=O)c3c2)c1F (single isomer, unassigned) [Compound 167, 3-[7-[4-[4-[(2,6-dioxo-3-piperidyl)amino]-2-fluoro-phenyl]cyclohexyl]-7-azaspiro[3.5]nonan-2-yl]-6-[3-[[ethyl(methyl)sulfamoyl]amino]-2,6-difluoro-phenoxy]-4-oxo-quinazoline]",–,–,< 1,> 10,–,–,–,–,1 to 10,** (<90% and >50%),** (<90% and >50%),–,–,–,–
